Data from the METLIN SMRT retention time set (Domingo-Almenara et al. 2019).

Test: gradient 5% acetonitrile 3 min, to 50% in 2 min, to 85% in 15 min, held 3 min, 100 µL/min
Details: column: Zorbax Extend-C18 2.1 x 50 mm; eluents: water / acetonitrile, 0.1% formic acid
Outline: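 Data were gathered over 3 months by HPLC coupled to a quadrupole time-of-flight mass spectrometer, operated in positive and negative ionization mode. Mixtures of ~100 pure standards ran on a Zorbax Extend-C18 column (2.1 × 50 mm, 1.8 μm) at 100 μL/min, with water and acetonitrile each containing 0.1% formic acid and dead and dwell volumes of 40 μL and 900 μL. Retention time was read from adduct peaks picked by computer and checked manually.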

| Structure (SMILES) | RP-LC retention time [s] |
| --- | --- |
| COc1ccc(CNC(=O)C2c3ccccc3C(=O)N3CCc4ccccc4C23)c(OC)c1 (centres undefined) | 796 |
| Nc1nc(-c2ccccc2)nn1C(=O)c1ccccc1 | 904 |
| O=C(Nc1ccc2c(c1)OCCO2)N1CCCn2nc(-c3cccc(Cl)c3)cc2C1 | 919 |
| Nc1ccc(-c2nc3nc(N)nc(N)c3nc2-c2ccc(N)cc2)cc1 | 596 |
| CCOc1ccc(NC(=O)N2C[C@H]3C[C@H](C2)[C@H]2CCCC(=O)N2C3)cc1 | 654 |
| COc1cccc(N2CCN(C(=O)C3CCN(c4cnc5nccnc5c4)CC3)CC2)c1 | 728 |
| Cc1ccc(CNC(=O)Cn2ccc3ccc(-c4nnc(C)o4)cc32)cc1 | 798 |
| CCOc1ccc(-c2noc(Cn3c(=O)n(CCCOC)c(=O)c4ccccc43)n2)cc1 | 1050 |
| Cc1nn(-c2nc(-c3ccc(F)cc3)cs2)c(C)c1CC(=O)Nc1ccc(F)cc1 | 1150 |
| O=C(N1CCN(c2cc(-c3ccc(Cl)cc3)[nH]n2)CC1)C1(c2ccccc2)CC1 | 924 |
| Cc1oc(-c2ccc(NC(=O)Cc3ccc(Cl)cc3)cc2)nc1Cn1cccn1 | 941 |
| COc1cccc(C(=O)N2CCc3cc(-c4csc(C)n4)ccc32)c1 | 988 |
| CCCn1c(CCC(=O)Nc2ccc3c(c2)OCCO3)nc2cccnc21 | 662 |
| CCN1C(=O)c2cccnc2Sc2cc(NC(=O)c3ccccc3C(F)(F)F)ccc21 | 840 |
| Cc1cc(C(=O)NCc2ccc(C)o2)c2cc(Br)ccc2n1 | 801 |
| COc1ccccc1CNC(=O)CN1CCN(Cc2ccc(F)cc2Cl)C1=O | 858 |
| CCCn1cc(S(=O)(=O)Nc2cc(F)cc(F)c2)c2cccnc21 | 890 |
| CC1=CC(C)(C)N=C2SC(c3ccc(N)cc3)=NN12 | 635 |
| COCCN1C(=O)c2ccccc2C(C(=O)Nc2ccc3[nH]ccc3c2)C12CCCC2 (centres undefined) | 814 |
| CCN1c2ccc(C)cc2C(=O)NC12CCN(C(=O)Cc1cccc(OC)c1)CC2 | 802 |
| CCC(C(=O)NCCCN1CCCC1)n1nc(C)c2sc3ccccc3c2c1=O (centres undefined) | 669 |
| COc1ccc(C(=O)N2CC(n3cc(COCC4CC4)nn3)C2)cn1 | 679 |
| CSc1nnc(-c2nn(C)c3c2CN(C(=O)CCc2ccccc2)CC3)n1C | 719 |

| Structure (SMILES) | RP-LC retention time [s] |
| --- | --- |
| CCOc1ccc(-c2ccc(=O)n(CCNC(=O)c3ccc(N(C)C)cc3)n2)cc1 | 732 |
| COc1ccc(Cl)cc1NC(=O)NCCn1c(-c2ccncc2)nc2cccnc21 | 659 |
| CCCCN1C(=O)C(C)(C(=O)Nc2ccc(F)cc2F)Oc2cccnc21 (centres undefined) | 1050 |
| O=C(CN1CCOCC1)Nc1ccc(Br)cc1 | 556 |
| Cc1cccc(-n2c(=O)c3c(cc(C)n3C)n(CC(=O)Nc3c(C)cc(C)cc3C)c2=O)c1 | 914 |
| CCOc1ccc(CC(=O)N2CCC3(CC2)Nc2cc(OC)ccc2-n2cccc23)cc1OCC | 1030 |
| Cc1cccc(NC(=O)N2CC(N(C3CCOCC3)S(C)(=O)=O)C2)c1 | 706 |
| O=C(CCc1c[nH]c2ccccc12)N1CCCN(C2CCN(CC3CC3)C2=O)CC1 (centres undefined) | 570 |
| Cc1cnn(Cc2nc(-c3ccc(NC(=O)c4cccs4)cc3)oc2C)c1 | 879 |
| Cc1cccc(NC(=O)C2CCN(S(=O)(=O)c3cc(C(=O)N4CCCC4)n(C)c3)CC2)n1 | 653 |
| Cc1cccc2c(C(=O)NC3CC3)c3c(nc12)CCC3 | 606 |
| CC(C)CCNC(=O)C1(C)CN(S(=O)(=O)c2ccccc2)CC(=O)N1Cc1ccc(Cl)cc1 (centres undefined) | 1040 |
| COc1ccc(Nc2nccc(C3CCCN(C(=O)C(C)(C)C)C3)n2)cc1 (centres undefined) | 892 |
| COc1ccccc1NC(=O)c1cc(=O)n2c(nc3ccccc32)s1 | 964 |
| CCCOc1nccnc1N1CCC(NC(=O)Cc2cccnc2)C1 (centres undefined) | 671 |
| CCn1cc2c3c(cccc31)CN(C(=O)Nc1cc(C)ccc1OC)CC2 | 1080 |
| CCCN1CCN(C(=O)c2c(C)sc3ccn(CC(C)C)c(=O)c23)CC1 | 618 |
| CCOC(=O)CNC(=O)N1CCc2c(c(C(=O)N3CCCCC3)nn2C)C1 | 643 |
| COC(=O)CC(=O)Nc1ccc(-c2nc(-c3ccccc3)co2)cc1 | 906 |
| Cn1nc(C(=O)N2CCCC(C(=O)N3CCCC3)C2)c2c1CCN(C(=O)c1ccccc1F)C2 (centres undefined) | 658 |
| CCCN1C(=O)COc2ccc(-c3noc(-c4ccn(CC)n4)n3)cc21 | 956 |
| O=C(CC1CCN(C(=O)C2CCCCC2)CC1)NCCc1c[nH]c2ccc(Cl)cc12 | 871 |
| COc1cccc(CC(=O)Nc2ccc3c(c2)Sc2ncccc2C(=O)N3C)c1 | 762 |

| Structure (SMILES) | RP-LC retention time [s] |
| --- | --- |
| O=C(NC1CC1)c1ccccc1OCC1CCCN(Cc2ccc3c(c2)CCO3)C1 (centres undefined) | 580 |
| CN(C)CCNC(=O)c1ccc(CS(=O)Cc2ccccc2Cl)o1 (centres undefined) | 597 |
| Cc1cc(C)c(NC(=O)Cn2c(N(C)Cc3ccccc3)nc(C)cc2=O)c(C)c1 | 860 |
| COCc1noc([C@@H]2CN(C(=O)c3noc(C)c3COC)C[C@H]2C(N)=O)n1 | 625 |
| CCOC(=O)c1ccc(OCCC2CCN(c3ccc(C)nn3)CC2)cc1 | 837 |
| CCc1ccccc1NC(=O)Cc1csc2nc(-c3ccc(C)c(C)c3)cn12 | 928 |
| Cc1ccc(-c2cc(C(=O)N(C)C)n(C)c2)cc1 | 891 |
| CCc1ccc(-n2nnc(C(=O)N3CCC4(CC3)OCCO4)c2-c2cccnc2)cc1 | 783 |
| Cc1ccccc1NC(=O)C1C(=O)N(CCO)C2(C)CC1c1ccccc1O2 (centres undefined) | 653 |
| CC(C)NC(=O)CN1CCN(C(=O)Nc2ccc(Cl)cc2)CC1=O | 669 |
| Cc1ccccc1CC(=O)N1CCC2(CC1)NC(=O)c1ccc(F)cc1N2C | 798 |
| Cc1ccc(-c2ccc(-n3nc(C)c(S(=O)(=O)N4CCN(C)CC4)c3C)nn2)cc1 | 695 |
| COc1ccc(Nc2nc(C(=O)N3c4ccccc4CC3C)cs2)cc1OC (centres undefined) | 854 |
| CCOC(=O)COc1cc(-c2ccccc2)nc2ccc(NC(=O)Cc3cccs3)cc12 | 797 |
| CC(C)(C)c1ccc(O)c(NC(=O)c2cn(-c3ccc(S(=O)(=O)N4CCOCC4)cc3)cn2)c1 | 966 |
| CCc1nc2ccc(-c3noc(CNS(=O)(=O)c4ccccc4)n3)cc2n1CC | 653 |
| O=C(C1CC=CC1)N1CCC2(CC1)NCCc1c2[nH]c2ccccc12 | 643 |
| CC(C)CCNC(=O)N1CCN(c2ncccc2-c2nnc(C3CC3)o2)CC1 | 765 |
| Cc1cc2[nH]c(C(=O)Nc3cc(F)ccc3F)c(CN3CCCC3)c2s1 | 702 |
| CCCc1noc(C2CCCCN2CC(=O)Nc2ccc(F)c(Cl)c2)n1 (centres undefined) | 1110 |
| CCS(=O)(=O)N1CCc2nc(-c3ccc(OC)cc3)ncc2C1 | 805 |
| O=C(c1cn2c(n1)CCCC2)N(Cc1ccccc1)Cc1ccco1 | 668 |
| O=C(NCc1ccccc1)C1CC(=O)N(C2CN(Cc3ccc(C(F)(F)F)cc3)C2)C1 (centres undefined) | 666 |

| Structure (SMILES) | RP-LC retention time [s] |
| --- | --- |
| O=C(COc1ccccc1[N+](=O)[O-])Nc1nc2c(s1)CCc1ccccc1-2 | 1030 |
| Cc1ccccc1-c1noc(Cn2c(=O)n(CC(C)C)c(=O)c3ccccc32)n1 | 1220 |
| O=C(NCc1ccc2c(c1)OCO2)c1ccc(S(=O)(=O)NCC2CCCO2)cc1 (centres undefined) | 688 |
| O=C(NCC1CCN(C(=O)Oc2ccccc2)CC1)C1c2ccccc2Oc2ccccc21 | 949 |
| COCCNC(=O)N1CCCC(COC)C1 (centres undefined) | 578 |
| O=C(NCc1nc(-c2ccc(Oc3ccc(Cl)cc3)cc2)no1)c1ccco1 | 987 |
| COc1ccc(S(=O)(=O)Nc2cc(-c3cn4cccc(C)c4n3)ccc2C)cc1 | 664 |
| Cc1ccc(-c2nc3n(CC(=O)NC4CC4)c4c(c(=O)n3n2)CCC4)cc1 | 702 |
| Cn1c(SCC(=O)c2ccccc2OC(F)F)nc2ccccc21 | 808 |
| CCOC(=O)c1cnc2ccc(OCC)cc2c1N1CCN(c2ccccc2)CC1 | 930 |
| c1ccc(-c2nnc(-c3ccccc3OCc3cn4ccccc4n3)o2)cc1 | 702 |
| CN(C1CCc2nn(CC3CC3)c(=O)n2CC1)S(=O)(=O)c1ccccc1C(F)(F)F (centres undefined) | 831 |
| Cc1ccc(NC(=O)Cn2nc3n(c2=O)CCCC3)cc1F | 677 |
| COc1ccc(C(=O)N(CCS(=O)(=O)N2CCNCC2)CC2CCCO2)cc1 (centres undefined) | 609 |
| Cn1c(=O)c2c(-c3ccncc3)c(C#N)c(N)nc2n(C)c1=O | 554 |
| CCCC(=O)N1CCC(C(=O)NCCc2cscn2)CC1 | 596 |
| NC(=O)Cc1cccc(C(=O)c2ccccc2)c1N | 734 |
| Cc1ccc(S(=O)(=O)N2CCc3nc[nH]c3C2)cc1Cl | 642 |
| Clc1ccc(OCc2nn3c(-c4ccccn4)nnc3s2)cc1 | 832 |
| COc1cc2c(cc1OC)C1C(C(=O)NCCCN3CCN(C)CC3)c3ccccc3C(=O)N1CC2 (centres undefined) | 547 |
